Data on 6 compounds can be found in patent US11236106B2, “Cycloalkane-1,3-diamine derivative” (Daiichi Sankyo Company, Limited, priority 2018, dated 2022).

Counter-ions that a name gives are not always drawn. Like-named read-outs stand apart in the source and are kept apart here.

Usually IC50 stands for the concentration needed to halve the response being measured. Read a high IC50 as lower potency.

Assay [1] deals with MV-4-11 cells. The note with it: Exp. Ex. 3-3, oral, 31 days after transplantation.
Experimental: MV-4-11 cells were purchased from ATCC. The female FOX CHASE SCID C.B.17/Icr-scid/scidJcl mice were purchased from Claire Japan. […] The compound was administered as a suspension in 0.5% MC. For the compound-free group, 0.5% MC was administered as a solvent. The estimated individual tumor volume was measured from the day of the grouping to 31 days after the transplantation (test end date).
Assay [2] has as its target T1, menin and MLL (menin, Flag tagged; biotinylated MLL1 peptide 1-46aa) (Homo sapiens, UniProt O00255).
T1 sequence (O00255 1-610): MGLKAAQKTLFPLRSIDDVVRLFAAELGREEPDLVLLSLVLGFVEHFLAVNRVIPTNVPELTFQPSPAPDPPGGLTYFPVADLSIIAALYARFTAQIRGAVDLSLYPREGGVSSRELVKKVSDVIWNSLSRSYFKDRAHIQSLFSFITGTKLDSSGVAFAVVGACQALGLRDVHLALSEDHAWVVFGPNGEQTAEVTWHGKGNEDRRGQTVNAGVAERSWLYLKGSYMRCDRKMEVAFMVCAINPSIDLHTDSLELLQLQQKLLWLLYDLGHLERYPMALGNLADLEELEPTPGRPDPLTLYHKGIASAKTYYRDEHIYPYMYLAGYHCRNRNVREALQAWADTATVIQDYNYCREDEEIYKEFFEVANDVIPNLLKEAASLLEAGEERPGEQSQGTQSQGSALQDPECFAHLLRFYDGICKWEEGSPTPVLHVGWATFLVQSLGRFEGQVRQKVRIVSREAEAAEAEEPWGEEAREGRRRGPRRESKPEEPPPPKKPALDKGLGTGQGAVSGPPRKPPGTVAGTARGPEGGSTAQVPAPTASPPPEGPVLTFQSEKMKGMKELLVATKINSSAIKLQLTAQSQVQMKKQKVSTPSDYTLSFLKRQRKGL
Put plainly: biochemical. Conditions: 1 nM menin, 10 nM biotinylated MLL1 peptide, AlphaLISA. (In Alpha technology, singlet oxygen from a donor bead excites a nearby acceptor bead.)
Experimental: Then, the fluorescence signal by AlphaLISA (registered trademark, PerkinElmer Co., Ltd.) was measured using a plate reader (PerkinElmer Co., Ltd., EnVisionXcite).

Assay [3] relates to MLL-AF9-overexpressing AML-like cells (MA9 cells). Put plainly: Differentiation-inducing activity in MLL-AF9-overexpressing AML-like cells (flow cytometry of Gr-1 and cKit). It counts as cell-based, mouse. Conditions: 7 days, 5 or 20 nM (Ex. 25, 27), 150 or 300 nM (Ex. 26), 50 or 100 nM (Ex. 22); for rate of the myeloid cell differentiation antigen Gr-1-expressing cells in living cells: versus control group (FIG. 10); for rate of the cKit-expressing cells in living cells: versus control group (FIG. 11). As to the method: The human MLL-AF9 fusion gene was introduced into cKit-positive mononuclear cells isolated from the myeloid of C57BL6 mouse, by retrovirus infection. MLL-AF9-overexpressing AML-like cells (MA9 cells) that acquired abnormal growth ability were established by liquid-culturing the cells after virus infection for a long period of time. Serum-free medium (GlutaMax, P/S, Stem Pro-34 medium containing 10 ng/ml mIL-3, ng/mL mSCF and 10 ng/mL human Oncostatin M) was used as a culture medium.
For the control group, DMSO was added thereto at a final concentration of 0.1% (2 μL/well) (day 0). After culturing for 7 days (day 7), the cells were collected, and blocked with 5% FBS/PBS containing 10% Mouse BD Fc Block (BD) for 10 minutes at room temperature, and then any of various antibodies (Gr-1-FITC or CD117 (cKit)-APC: Biolegend) was added thereto at a final concentration of 0.4 μg/sample, and the mixture was reacted on ice for 30 minutes. Then, dead cell staining dye DAPI (0.2 mg/mL) was added thereto at so as to be […], and the reaction was carried out on ice for additional 2 minutes under shading. Then, the expression level of each surface antigen of the cells was measured by NovoCyte flow cytometer (LMS). The obtained data were analyzed by FlowJo software (Becton Dickinson), and the rate of each surface antigen-expressing cells in the living cells excluding dead cells was graphed.

Assay [4] relates to MV-4-11 cells. Put plainly: Antitumor activity in MV-4-11 cell subcutaneous transplant model (Experimental Example 3-4). The note with it: Exp. Ex. 3-4, oral, 32 days after transplantation. It counts as in vivo, mice. As to the method:
MV-4-11 cells were purchased from ATCC. The female FOX CHASE SCID C.B.17/Icr-scid/scidJcl mice were purchased from Claire Japan. […] The compound was administered as a suspension in 0.5% MC. For the compound-free group, 0.5% MC was administered as a solvent. The estimated individual tumor volume was measured from the day of the grouping to 32 days after the transplantation (test end date).
Tumor growth inhibitory rate %=(1−TVCt/TVCc)×100 TVC=(Individual tumor volume on the test end date)−(Individual tumor volume on the grouping date) TVCt: TVC mean value of the compound administration group TVCc: TVC mean value of the compound-free group

The mark [5] stands for this setting: IC50, binding inhibitory activity between menin and MLL.

Consider `CN(c1ncnc2sc(CC(F)(F)F)cc12)[C@H]1C[C@@H](NCc2ccc(-c3cccc4c3cnn4S(C)(=O)=O)cc2)C[C@H]1O` [Example 23, (1R,2S,4R)-4-[({4-[1-(methanesulfonyl)-1H-indazol-4-yl]phenyl}methyl)amino]-2-{methyl[6-(2,2,2-trifluoroethyl)thieno[2,3-d]pyrimidin-4-yl]amino}cyclopentan-1-ol Hydrochloride], for which the “Estimated tumor volume (test end date) Mean ± S.E.” value (shortened to “Estimated tumor volume”) in the assay with MV-4-11 cells [1] (qdx17, 25 mg/kg/day) is reported as 616 ± 86; in the assay on MV-4-11 cells [1] (qdx17, 50 mg/kg/day), 31 ± 10; in the assay on MV-4-11 cells [1] (qdx17, 100 mg/kg/day), 0 ± 0. In assay [2] (cell free IC50 (nM)), the IC50 amounted to 2.8 nM.

Turning to `COc1nc(N(C)[C@H]2C[C@@H](NCc3ccc(-c4cc(OC)c(OC)nn4)cc3)C[C@H]2O)c2cc(CC(F)(F)F)sc2n1` [Example 27, (1R,2S,4R)-4-({[4-(5,6-dimethoxypyridazin-3-yl)phenyl]methyl}amino)-2-{[2-methoxy-6-(2,2,2-trifluoroethyl)thieno[2,3-d]pyrimidin-4-yl](methyl)amino}cyclopentan-1-ol Hydrochloride], in assay [3], the “rate of the myeloid cell differentiation antigen Gr-1-expressing cells in living cells” value was “increased the rate of Gr-1-positive cells” and the “rate of the cKit-expressing cells in living cells” value is recorded as “reduced the rate of cKit-positive cells”. The same compound gave an IC50 in assay [2] (cell free IC50 (nM)) of 1.3 nM.

As for `COc1cc(-c2ccc(CN[C@H]3C[C@@H](O)[C@@H](N(C)c4ncnc5sc(CC(F)(F)F)cc45)C3)cc2)cnc1OC.Cl` [Example 67, (1R,2S,4R)-4-({[4-(5,6-dimethoxypyridin-3-yl)phenyl]methyl}amino)-2-{methyl[6-(2,2,2-trifluoroethyl)thieno[2,3-d]pyrimidin-4-yl]amino}cyclopentan-1-ol hydrochloride], the “Estimated tumor volume” value with MV-4-11 cells [4] (qdx16, 25 mg/kg/day) is reported as 896 ± 56; with MV-4-11 cells [4] (qdx16, 50 mg/kg/day), 381 ± 59; with MV-4-11 cells [4] (qdx16, 100 mg/kg/day), 0 ± 0. The same compound yielded an IC50 in assay [2] (setting [5]) of 2.1 nM.

On to `COc1cc(-c2ccc(CN[C@H]3C[C@@H](O)[C@@H](N(C)c4ncnc5sc(CC(F)(F)F)cc45)C3)cc2)cnc1C#N` [Example 22, 5-[4-({[(1R,3R,4S)-3-hydroxy-4-{methyl[6-(2,2,2-trifluoroethyl)thieno[2,3-d]pyrimidin-4-yl]amino}cyclopentyl]amino}methyl)phenyl]-3-methoxypyridine-2-carbonitrile Hydrochloride], for which, in assay [3], the “rate of the myeloid cell differentiation antigen Gr-1-expressing cells in living cells” value is “increased the rate of Gr-1-positive cells” and the “rate of the cKit-expressing cells in living cells” value was “reduced the rate of cKit-positive cells”. The same compound registered an IC50 in assay [2] (cell free IC50 (nM)) of 3.8 nM.

Consider `COc1cc(-c2ccc(CN[C@H]3C[C@@H](O)[C@@H](N(C)c4ncnc5sc(CC(F)(F)F)cc45)C3)cc2)cnc1F.Cl` [Example 68, (1R,2S,4R)-4-({[4-(6-fluoro-5-methoxypyridin-3-yl)phenyl]methyl}amino)-2-{methyl[6-(2,2,2-trifluoroethyl)thieno[2,3-d]pyrimidin-4-yl]amino}cyclopentan-1-ol hydrochloride], for which the “Estimated tumor volume” value in the assay on MV-4-11 cells [1] (qdx17, 25 mg/kg/day) is listed as 1151 ± 142; with MV-4-11 cells [1] (qdx17, 50 mg/kg/day), 559 ± 104; in the assay with MV-4-11 cells [1] (qdx17, 100 mg/kg/day), 31 ± 23. Besides, the IC50 in assay [2] (setting [5]) was determined as 1.7 nM.

For the compound `COc1cc(-c2ccc(CN[C@H]3C[C@@H](O)[C@@H](N(C)c4ncnc5sc(CC(F)(F)F)cc45)C3)cc2)cnc1C.Cl` [Example 60, (1R,2S,4R)-4-({[4-(5-methoxy-6-methylpyridin-3-yl)phenyl]methyl}amino)-2-{methyl[6-(2,2,2-trifluoroethyl)thieno[2,3-d]pyrimidin-4-yl]amino}cyclopentan-1-ol hydrochloride], the “Estimated tumor volume” value in the assay with MV-4-11 cells [4] (qdx16, 25 mg/kg/day) is listed as 558 ± 79; in the assay on MV-4-11 cells [4] (qdx16, 50 mg/kg/day), 25 ± 11; with MV-4-11 cells [4] (qdx16, 100 mg/kg/day) it was 0 ± 0. In addition, the IC50 in assay [2] (cell free IC50 (nM)) was 2.4 nM.
